In patent US20220370553A1, “PREBIOTIC-INDUCED ANTI-TUMOR IMMUNITY” (Sanford Burnham Prebys Medical Discovery Institute, priority 2019, published 2022):

Tests used:
[1] = system: Yumm1.5 tumors; experiment: Growth of Yumm1.5 melanoma tumors in prebiotic-fed mice; assay type: in vivo, C57BL/6 mice; settings: mucin 3% in drinking water or inulin 15% w/w chow from 2 weeks prior to inoculation of 1×10^6 Yumm1.5 cells
From the text: FIG. 2B, Quantification of tumor-infiltrating effector (CD44hi) CD4+, CD8+ and CD45+ T cells from mice treated as in FIG. 2A (n=10). FIG. 2C, Quantification of tumor-infiltrating, IFN-g-producing CD4+ T cells from mice treated as in FIG. 2A (n=10). FIG. 2D, Quantification of tumor-infiltrating total DCs and subsets in mice treated as in FIG. 2A (n=10). FIG. 2E, MFI of MHC class I and MHC class II on DCs from the tumors of mice treated as in FIG. 2A (n=10). […] Graphs show the mean s.e.m. *P<0.05, **P<0.005, ***P<0.001,****P<0.0001 by two-way ANOVA with Tukey's correction (A) and by one-way ANOVA with Tukey's correction (B-E).

[2] = system: serum cytokines and chemokines; experiment: Serum cytokine and chemokine detection (LEGENDplex); assay type: in vivo, mice
From the text: Graphs show the mean±s.e.m. *P<0.05, ****P<0.0001 by two-tailed t-test or Mann-Whitney U test.
Serum cytokine and chemokine detection. Cytokines and chemokines in the sera of naïve or tumor-bearing mice treated with or without mucin were quantified using the LEGENDplex™ mouse inflammation panel and mouse proinflammatory chemokine panel (BioLegend), respectively. All data were collected on an LSRFortessa (BD Biosciences) and analyzed using LEGENDplex™ software (BioLegend).
Levels of circulating cytokines and chemokines were quantified in mucin-treated mice both before and after tumor inoculation.

[3] = system: fecal microbiota; experiment: 16S rRNA amplicon sequencing of fecal microbiota, YUMM1.5 melanoma model; assay type: in vivo, C57BL/6 mice; settings: YUMM1.5 model, TABLE 3
Method: (§1) Bacterial DNA extraction and 16S library preparation. […] Mouse fecal pellets were frozen on dry ice, and stored at −80° C. Bacterial DNA was extracted using the QIAmp Fast DNA Stool Mini Kit (Qiagen). To ensure efficient cell lysis, a 5-min bead-beating step using a Mini-Beadbeater-16 was included (Biospec Products, OK, USA). Library preparation for the Illumina MiSeq platform was performed by amplification of the V3-V4 region of the bacterial 16S ribosomal DNA gene using
(§2) C. Adapter and barcode sequences for dual indices were used as described by Illumina. PCR clean up steps were performed with QIAquick 96-PCR Clean up kit (Qiagen, Germany), and library quantification was performed using a KAPA Library Quantification Kit for Illumina platforms (KAPA Biosystems, MA, USA). An Experion Automated Gel Electrophoresis System (Bio-Rad, CA, USA) was used to measure the DNA concentration and purity of the pooled libraries. The 16S libraries were sequenced at Novagene (Beijing, China) and the SBP sequencing Core.
16S sequencing data processing. […] OSUs mapped to the same strains are grouped together (adding read counts) if percentage similarities are within 3%. Read counts are converted into relative abundance as described in HiMap. […]

[4] = system: gut microbiota; assay type: in vivo, C57BL/6 mice; settings: in the absence of MEKi
Method: as §1, §2
(§3) 16S sequencing data processing. The original FASTQ files from Illumina 250 basepair paired-end sequencing of the samples were processed using a novel 16S amplicon sequencing pipeline HiMap (http://github.com/taolonglab/himap; BioRxiv 565572). The output of HiMap is Operational Strain Unit (OSU) which contains one or more bacterial strains that best match the 16S sequence and cannot be further distinguished. The percentage similarity between the 16S sequence and the aligned region of 16S rRNA genes of the strains in the OSU is indicated. OSUs mapped to the same strains are grouped together (adding read counts) if percentage similarities are within 3%. Read counts are converted into relative abundance as described in HiMap. Log 10-transformed relative abundances were used for comparisons between samples under different experimental conditions.

[5] = system: fecal microbiota; experiment: 16S sequencing of fecal microbiota, MC-38 colon cancer model; assay type: in vivo, C57BL/6 mice
Method: as §1, §2, §3
The effects of inulin on the microbiota were evaluated in a colon cancer model. […] MC-38 mouse colorectal cancer cells (1×10^6) were inoculated, and diets were continued after inoculation.
(§4) P-values were calculated using paired one-tail Wilcoxon rank sum test.
as §4

[6] = system: CD8+ T cells; experiment: qRT-PCR of cytokine and chemokine mRNAs in CD8+ T cells in vitro; assay type: cell-based, mice; settings: 0.05 or 0.5 mg/ml in vitro; in some conditions
From the text: Data are representative of two independent experiments. Graphs show the mean±s.e.m. *P<0.05, **P<0.005, ***P<0.001, ****P<0.0001 one-way ANOVA with Tukey's correction.
RNA extraction and qRT-PCR analyses. Total RNA was extracted from tumor samples individually using the RNeasy Fibrous Tissue Midi kit (QIAGEN) or cells treated as indicated using High Capacity Reverse Transcriptase kits (Invitrogen) according to the manufacturer's protocol. Purity and concentration of extracted RNA were checked and quantified by reading at 260 and 280 nm in a NanoDrop spectrophotometer (Thermo Fisher). The qRT-PCR analyses were performed using Syber Green RT-PCR kits (Invitrogen) on a Bio-Rad CFX Connect Real-Time system. Expression levels normalized to 18S or Tubb5 controls.

[7] = B: 14 days after mucin feeding, A (prior to feeding) 0.001, p A vs B 0.001
[8] = C: 20 days post-tumor cell inoculation with mucin feeding
[9] = C: 20 days post-tumor cell inoculation with mucin feeding, p B vs C 0.006
[10] = C: 20 days post-tumor cell inoculation with mucin feeding, p B vs C 0.007
[11] = C: 20 days post-tumor cell inoculation with mucin feeding, p B vs C 0.011

Substance: mucin
- melanoma tumor growth [1]: attenuated
- serum levels of IL-6, IL-1a, IL-10, IL-17A and IL-23 ([2]; following tumor inoculation (10 days), compared with control): reduced levels
- serum levels of IL-1a and CXCL13 ([2]; mucin feeding for two weeks, prior to tumor inoculation): Higher levels
- serum levels of chemokines CXCL1 and CXCL13 ([2]; tumor-inoculated mice (10 days), compared with control): Lower serum levels
- taxa enriched [3]: predominantly enriched taxa with similarity to members of Clostridium cluster XIVa
- phylotype group related to Parasutterella excrementihominis [4]: not observed
- taxa increased in relative abundance [4]: primarily increased the relative abundance of taxa mapped in or near Clostridium cluster XIVa
- Abundance of phylotype group Clostridium cellulolyticum (93) [5, 7]: 0.055
- Abundance of phylotype group Dubosiella newyorkensis (93) [5, 7]: 0.044
- Abundance of phylotype group Staphylococcus saprophyticus (100) ([5]; B: 14 days after mucin feeding, A (prior to feeding) 0.001, p A vs B 0.005): 0.057
- Abundance of phylotype group Corynebacterium ammoniagenes (99) ([5]; B: 14 days after mucin feeding, A (prior to feeding) 0.001, p A vs B 0.006): 0.054
- Abundance of phylotype group Olsenella profusa (92) ([5]; B: 14 days after mucin feeding, A (prior to feeding) 0.001, p A vs B 0.023): 0.118
- Abundance of phylotype group Christensenella timonensis (88) / Anaerotruncus colihominis (88) ([5]; B: 14 days after mucin feeding, A (prior to feeding) 0.001, p A vs B 0.025): 0.010
- Abundance of phylotype group Gracilibacter thermotolerans (89) / Christensenella massiliensis (88) ([5]; B: 14 days after mucin feeding, A (prior to feeding) 0.001, p A vs B 0.036): 0.006
- Abundance of phylotype group Bifidobacterium pseudolongum (90) ([5]; B: 14 days after mucin feeding, A (prior to feeding) 0.001, p A vs B 0.049): 0.025
- Abundance of phylotype group Ruminococcus lactaris (97) / Clostridium oroticum (97) ([5]; B: 14 days after mucin feeding, A (prior to feeding) 0.004, p A vs B 0.0005): 0.062
- Abundance of phylotype group Clostridium hylemonae (98) / Muricomes intestini (98) / Clostridium oroticum (98) XIVa ([5]; B: 14 days after mucin feeding, A (prior to feeding) 0.005, p A vs B 0.040): 0.029
- Abundance of phylotype group Desulfovibrio desulfuricans (95) ([5]; B: 14 days after mucin feeding, A (prior to feeding) 0.008, p A vs B 0.035): 0.338
- Abundance of phylotype group Clostridium cellulovorans (89) / Christensenella massiliensis (88) ([5]; B: 14 days after mucin feeding, A (prior to feeding) 0.009, p A vs B 0.048): 0.045
- Abundance of phylotype group Eubacterium dolichum (93) ([5]; B: 14 days after mucin feeding, A (prior to feeding) 0.011, p A vs B 0.025): 0.106
- Abundance of phylotype group Clostridium viride (96) / Intestinimonas butyriciproducens (96) / Pseudoflavonifractor capillosus (95) ([5]; B: 14 days after mucin feeding, A (prior to feeding) 0.013, p A vs B 0.001): 0.062
- Abundance of phylotype group Roseburia faecis (95) ([5]; B: 14 days after mucin feeding, A (prior to feeding) 0.013, p A vs B 0.009): 0.124
- Abundance of phylotype group Ihubacter massiliensis (98) / E. timonensis (96) ([5]; B: 14 days after mucin feeding, A (prior to feeding) 0.014, p A vs B 0.002): 0.146
- Abundance of phylotype group Clostridium xylanolyticum (98) / C. aerotolerans (97) ([5]; B: 14 days after mucin feeding, A (prior to feeding) 0.014, p A vs B 0.008): 0.088
- Abundance of phylotype group Harryflintia acetispora (95) / Anaerotruncus colihominis (93) ([5]; B: 14 days after mucin feeding, A (prior to feeding) 0.017, p A vs B 0.043): 0.040
- Abundance of phylotype group Staphylococcus lentus (100) ([5]; B: 14 days after mucin feeding, A (prior to feeding) 0.024, p A vs B 0.030): 0.349
- Abundance of phylotype group Roseburia intestinalis (95) / Ruminococcus faecis (95) / E. rectale (95) ([5]; B: 14 days after mucin feeding, A (prior to feeding) 0.029, p A vs B 0.003): 0.113
- Abundance of phylotype group Eubacterium dolichum (92) ([5]; B: 14 days after mucin feeding, A (prior to feeding) 0.045, p A vs B 0.00003): 0.291
- Abundance of phylotype group Murimonas intestini (97) / Clostridium celerecrescens (96) XIVa ([5]; B: 14 days after mucin feeding, A (prior to feeding) 0.104, p A vs B 0.009): 0.300
- Abundance of phylotype group Anaerotaenia torta (96) / C. xylanolyticum (95) ([5]; B: 14 days after mucin feeding, A (prior to feeding) 0.168, p A vs B 1 × 10^−6): 0.421
- Abundance of phylotype group Olsenella profusa (95) ([5]; B: 14 days after mucin feeding, A (prior to feeding) 0.180, p A vs B 0.004): 4.883
- Abundance of phylotype group Clostridium cocleatum (99) ([5]; B: 14 days after mucin feeding, A (prior to feeding) 0.253, p A vs B 0.011): 7.822
- Abundance of phylotype group Muribaculum intesinale (92) ([5]; B: 14 days after mucin feeding, A (prior to feeding) 6.008, p A vs B 4 × 10^−7): 17.058
- Abundance of phylotype group Bifidobacterium pseudolongum (90) [5, 8]: 0.006
- Abundance of phylotype group Clostridium cellulolyticum (93) [5, 8]: 0.055
- Abundance of phylotype group Clostridium cellulovorans (89) / Christensenella massiliensis (88) [5, 8]: 0.038
- Abundance of phylotype group Clostridium cocleatum (99) [5, 8]: 3.099
- Abundance of phylotype group Clostridium hylemonae (98) / Muricomes intestini (98) / Clostridium oroticum (98) XIVa [5, 8]: 0.030
- Abundance of phylotype group Desulfovibrio desulfuricans (95) [5, 8]: 0.533
- Abundance of phylotype group Eubacterium dolichum (92) [5, 8]: 0.462
- Abundance of phylotype group Eubacterium dolichum (93) [5, 8]: 0.279
- Abundance of phylotype group Gracilibacter thermotolerans (89) / Christensenella massiliensis (88) [5, 8]: 0.020
- Abundance of phylotype group Murimonas intestini (97) / Clostridium celerecrescens (96) XIVa [5, 8]: 0.462
- Abundance of phylotype group Olsenella profusa (92) [5, 8]: 0.068
- Abundance of phylotype group Olsenella profusa (95) [5, 8]: 3.256
- Abundance of phylotype group Ruminococcus lactaris (97) / Clostridium oroticum (97) [5, 8]: 0.060
- Abundance of phylotype group Dubosiella newyorkensis (93) ([5]; C: 20 days post-tumor cell inoculation with mucin feeding, p B vs C 0.001): 0.005
- Abundance of phylotype group Corynebacterium ammoniagenes (99) [5, 9]: 0.002
- Abundance of phylotype group Harryflintia acetispora (95) / Anaerotruncus colihominis (93) [5, 9]: 0.172
- Abundance of phylotype group Clostridium viride (96) / Intestinimonas butyriciproducens (96) / Pseudoflavonifractor capillosus (95) [5, 10]: 0.113
- Abundance of phylotype group Muribaculum intesinale (92) [5, 10]: 11.857
- Abundance of phylotype group Roseburia intestinalis (95) / Ruminococcus faecis (95) / E. rectale (95) [5, 10]: 0.407
- Abundance of phylotype group Roseburia faecis (95) [5, 11]: 0.555
- Abundance of phylotype group Staphylococcus saprophyticus (100) [5, 11]: 0.006
- Abundance of phylotype group Christensenella timonensis (88) / Anaerotruncus colihominis (88) ([5]; C: 20 days post-tumor cell inoculation with mucin feeding, p B vs C 0.028): 0.027
- Abundance of phylotype group Staphylococcus lentus (100) ([5]; C: 20 days post-tumor cell inoculation with mucin feeding, p B vs C 0.034): 0.033
- expression of Granzyme B, CCL4, and CCL5 in CD8+ T cells [6]: enhanced expression
